PubChem BioAssay AID248 (DTP/NCI, 2004)
Values joined by “and” are separate entries in the source; they are usually repeats but may differ in a detail not shown here. Equal values may be shown once. Toxic doses and inconclusive results are not listed. No stated cut-off is given here; in the data, active means T/C of 150% or more; inactive means T/C below 125%.

Tested on: L1210 leukemia ip in BDF1 mice, survival T/C
Assay: NCI In Vivo Anticancer Drug Screen. Data for tumor model L1210 Leukemia (intraperitoneal) in B6D2F1 (BDF1) mice
Details: endpoint: mean survival time, higher = longer survival
In short: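 Read-out is survival time, reported as the treated-group measurement over the vehicle-control measurement.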

[1] = dose: 100.0 mg/kg/injection, schedule: Q01DX009 (ip), vehicle: saline
[2] = dose: 100.0 mg/kg/injection, schedule: Q04DX003 (ip), vehicle: saline
[3] = dose: 200.0 mg/kg/injection, schedule: Q01DX009 (ip), vehicle: saline
[4] = dose: 200.0 mg/kg/injection, schedule: Q04DX003 (ip), vehicle: saline
[5] = dose: 400.0 mg/kg/injection, schedule: Q04DX003 (ip), vehicle: saline
[6] = dose: 100.0 mg/kg/injection, schedule: Q04DX003 (ip), vehicle: Klucel (hydroxypropylcellulose) (HPC)
[7] = dose: 200.0 mg/kg/injection, schedule: Q04DX003 (ip), vehicle: Klucel (hydroxypropylcellulose) (HPC)
[8] = dose: 400.0 mg/kg/injection, schedule: Q04DX003 (ip), vehicle: Klucel (hydroxypropylcellulose) (HPC)
[9] = dose: 100.0 mg/kg/injection, schedule: Q01DX001 (ip), vehicle: carboxymethylcellulose (CMC)
[10] = dose: 200.0 mg/kg/injection, schedule: Q01DX001 (ip), vehicle: carboxymethylcellulose (CMC)
[11] = dose: 100.0 mg/kg/injection, schedule: Q01DX001 (ip), vehicle: saline
[12] = dose: 200.0 mg/kg/injection, schedule: Q01DX001 (ip), vehicle: saline
[13] = dose: 400.0 mg/kg/injection, schedule: Q01DX001 (ip), vehicle: saline
[14] = dose: 100.0 mg/kg/injection, schedule: Q01DX009 (ip), vehicle: saline with Tween-80
[15] = dose: 200.0 mg/kg/injection, schedule: Q01DX009 (ip), vehicle: saline with Tween-80

Measured: T/C

CCOCCC(=O)NCc1ccccc1
inactive: dose: 100.0 mg/kg/injection, schedule: Q01DX001 (ip), vehicle: saline with Tween-80 100 % of control | dose: 200.0 mg/kg/injection, schedule: Q01DX001 (ip), vehicle: saline with Tween-80 104 % of control | dose: 400.0 mg/kg/injection, schedule: Q01DX001 (ip), vehicle: saline with Tween-80 106 % of control

Nc1cccc2[nH]cnc12
inactive: [1] 98 % of control | [2] 106 % of control | [3] 111 % of control | [4] 104 % of control | dose: 400.0 mg/kg/injection, schedule: Q01DX009 (ip), vehicle: saline 93 % of control | [5] 101 % of control

CCCCCCCCCCCCCCCCOc1ccc(C=Nc2ccc(C)cc2)cc1
inactive: [6] 103 % of control | [7] 97 % of control | [8] 104 % of control

Cc1cc(C)c(N2C(=O)C=CC2=O)c(C)c1
inactive: dose: 0.39 mg/kg/injection, schedule: Q01DX009 (ip), vehicle: saline with Tween-80 94 % of control | dose: 0.78 mg/kg/injection, schedule: Q01DX009 (ip), vehicle: saline with Tween-80 94 % of control | dose: 1.56 mg/kg/injection, schedule: Q01DX009 (ip), vehicle: saline with Tween-80 95 % of control and 108 % of control | dose: 6.25 mg/kg/injection, schedule: Q01DX009 (ip), vehicle: saline with Tween-80 88 % of control

C/C=C1\C[C@@H]2C(OC)Nc3cc(O)c(OC)cc3C(=O)N2C1 (stereo partly drawn)
inactive: dose: 0.02 mg/kg/injection, schedule: Q01DX009 (ip), vehicle: saline 98 % of control | dose: 0.04 mg/kg/injection, schedule: Q01DX009 (ip), vehicle: saline 98 % of control | dose: 0.09 mg/kg/injection, schedule: Q01DX009 (ip), vehicle: saline 92 % of control | dose: 0.18 mg/kg/injection, schedule: Q01DX009 (ip), vehicle: saline 101 % of control | dose: 0.18 mg/kg/injection, schedule: Q04DX002 (ip), vehicle: saline 100 % of control | dose: 0.37 mg/kg/injection, schedule: Q04DX002 (ip), vehicle: saline 100 % of control | dose: 0.75 mg/kg/injection, schedule: Q04DX002 (ip), vehicle: saline 110 % of control

CC(C)=NNC(=O)c1ccccn1
inactive: dose: 50.0 mg/kg/injection, schedule: Q01DX001 (ip), vehicle: carboxymethylcellulose (CMC) 101 % of control | dose: 50.0 mg/kg/injection, schedule: Q01DX009 (ip), vehicle: carboxymethylcellulose (CMC) 104 % of control | dose: 50.0 mg/kg/injection, schedule: Q04DX003 (ip), vehicle: carboxymethylcellulose (CMC) 100 % of control | [9] 104 % of control | dose: 100.0 mg/kg/injection, schedule: Q01DX009 (ip), vehicle: carboxymethylcellulose (CMC) 104 % of control and 106 % of control | dose: 100.0 mg/kg/injection, schedule: Q04DX003 (ip), vehicle: carboxymethylcellulose (CMC) 115 % of control | [10] 113 % of control

Oc1cccc2ccc(N/N=C/c3ccnc4c(O)cccc34)nc12
inactive: [9] 93 % of control | [10] 96 % of control | dose: 400.0 mg/kg/injection, schedule: Q01DX001 (ip), vehicle: carboxymethylcellulose (CMC) 91 % of control

CC(CN(C)C)CN1c2ccccc2Sc2ccccc21 (stereo not drawn)
inactive: dose: 3.12 mg/kg/injection, schedule: Q04DX003 (ip), vehicle: saline with Tween-80 105 % of control | dose: 3.12 mg/kg/injection, schedule: Q04DX003 (ip), vehicle: saline 96 % of control | dose: 6.12 mg/kg/injection, schedule: Q04DX003 (ip), vehicle: saline with Tween-80 101 % of control | dose: 6.25 mg/kg/injection, schedule: Q04DX003 (ip), vehicle: saline 100 % of control and 104 % of control | dose: 12.5 mg/kg/injection, schedule: Q04DX003 (ip), vehicle: saline with Tween-80 105 % of control | dose: 12.5 mg/kg/injection, schedule: Q04DX003 (ip), vehicle: saline 102 % of control and 113 % of control | dose: 25.0 mg/kg/injection, schedule: Q04DX003 (ip), vehicle: saline with Tween-80 103 % of control | dose: 25.0 mg/kg/injection, schedule: Q04DX003 (ip), vehicle: saline 102 % of control | dose: 50.0 mg/kg/injection, schedule: Q04DX003 (ip), vehicle: saline with Tween-80 120 % of control

NC(N)=N/N=C\c1c[nH]c2ccccc12
inactive: dose: 15.0 mg/kg/injection, schedule: Q01DX Z (ip), vehicle: carboxymethylcellulose (CMC) 102 % of control | dose: 30.0 mg/kg/injection, schedule: Q01DX Z (ip), vehicle: carboxymethylcellulose (CMC) 103 % of control | dose: 30.0 mg/kg/injection, schedule: Q01DX Z (oral), vehicle: carboxymethylcellulose (CMC) 89 % of control | dose: 60.0 mg/kg/injection, schedule: Q01DX Z (ip), vehicle: carboxymethylcellulose (CMC) 100 % of control | dose: 60.0 mg/kg/injection, schedule: Q01DX Z (oral), vehicle: carboxymethylcellulose (CMC) 92 % of control | dose: 120.0 mg/kg/injection, schedule: Q01DX Z (oral), vehicle: carboxymethylcellulose (CMC) 96 % of control | dose: 240.0 mg/kg/injection, schedule: Q01DX Z (oral), vehicle: carboxymethylcellulose (CMC) 96 % of control

CNC(=O)c1c2c(nc3ccccc13)CCCC2
inactive: [11] 102 % of control | [12] 102 % of control | [13] 111 % of control

O=S(=O)(Nc1cc(Cl)c(NS(=O)(=O)c2ccccc2)c(S(=O)(=O)c2ccccc2)c1Cl)c1ccccc1
inactive: dose: 100.0 mg/kg/injection, schedule: Q01DX001 (ip), vehicle: Klucel (hydroxypropylcellulose) (HPC) 97 % of control | [6] 101 % of control | dose: 200.0 mg/kg/injection, schedule: Q01DX001 (ip), vehicle: Klucel (hydroxypropylcellulose) (HPC) 93 % of control | [7] 102 % of control | dose: 400.0 mg/kg/injection, schedule: Q01DX001 (ip), vehicle: Klucel (hydroxypropylcellulose) (HPC) 97 % of control | [8] 106 % of control

CCSC1OC(COC(C)=O)C(OC(C)=O)C1NC(C)=O (stereo not drawn)
inactive: dose: 50.0 mg/kg/injection, schedule: Q01DX001 (ip), vehicle: saline 103 % of control | [11] 113 % of control | [12] 97 % of control | [13] 107 % of control

ClCc1ccncc1
inactive: [1] 87 % of control | [2] 109 % of control | [3] 95 % of control | [4] 98 % of control | [5] 98 % of control

O=[N+]([O-])CC1c2ccccc2Nc2ccccc21
inactive: dose: 50.0 mg/kg/injection, schedule: Q01DX009 (ip), vehicle: saline with Tween-80 93 % of control | [14] 107 % of control | [15] 100 % of control

CC(=O)N1C(=O)NC(=O)C1(C)c1ccco1 (stereo not drawn)
inactive: [14] 103 % of control | dose: 100.0 mg/kg/injection, schedule: Q04DX003 (ip), vehicle: saline with Tween-80 94 % of control | [15] 100 % of control | dose: 200.0 mg/kg/injection, schedule: Q04DX003 (ip), vehicle: saline with Tween-80 97 % of control | dose: 400.0 mg/kg/injection, schedule: Q01DX009 (ip), vehicle: saline with Tween-80 97 % of control | dose: 400.0 mg/kg/injection, schedule: Q04DX003 (ip), vehicle: saline with Tween-80 105 % of control

CC(O)(C#N)C(F)(F)F (stereo not drawn)
inactive: dose: 75.0 mg/kg/injection, schedule: Q01DX001 (ip), vehicle: saline 102 % of control | dose: 150.0 mg/kg/injection, schedule: Q01DX001 (ip), vehicle: saline 91 % of control | dose: 300.0 mg/kg/injection, schedule: Q01DX001 (ip), vehicle: saline 105 % of control

Cc1c(N)nc(C(CC(N)=O)NCC(N)C(N)=O)nc1C(=O)NC(C(=O)NC(C)C(O)C(C)C(=O)NC(C(=O)NCCc1nc(-c2nc(C(=O)NCCC[S+](C)C)cs2)cs1)C(C)O)C(OC1OC(CO)C(O)C(O)C1OC1OC(CO)C(O)C(OC(N)=O)C1O)c1cnc[nH]1 (stereo not drawn)
inactive: dose: 1.0 mg/kg/injection, schedule: Q01DX009 (ip), vehicle: Klucel (hydroxypropylcellulose) (HPC) 106 % of control | dose: 2.0 mg/kg/injection, schedule: Q01DX009 (ip), vehicle: Klucel (hydroxypropylcellulose) (HPC) 95 % of control | dose: 4.0 mg/kg/injection, schedule: Q01DX009 (ip), vehicle: Klucel (hydroxypropylcellulose) (HPC) 107 % of control | dose: 8.0 mg/kg/injection, schedule: Q01DX009 (ip), vehicle: Klucel (hydroxypropylcellulose) (HPC) 101 % of control
